These results are taken from patent US20210128566A1, “NOVEL FUNCTIONALIZED PURINE-2,6-DIONES AND THEIR USE IN MEDICINE” (THOMAS HELLEDAYS STIFTELSE FÖR MEDICINSK FORSKNING, priority 2017, published 2021).

The target of the assay is recombinant human NUDT5 (Homo sapiens, UniProt Q9UKK9). Nature of the assay: NUDT5 inhibitor activity by malachite green reporter assay. Format: biochemical. The conditions noted are these: 6 nM NUDT5, 50 μM ADP-Ribose, 15 minutes at room temperature. As for the experimental part: NUDT5 inhibitors were evaluated using a coupled enzymatic assay with detection of inorganic phosphate (Pi) using the malachite green assay. Following enzymatic hydrolysis of ADP-Ribose (Sigma-Aldrich A0572) by NUDT5, to yield AMP and ribose-5-phosphate, the latter product is continuously processed by a significant excess of alkaline phosphatase (Sigma-Aldrich, P0114). Formation of Pi is quantified based on the green complex (that absorbs at 630 nm) formed between malachite green and molybdate according to published procedure (Baykov, A. A., Evtushenko, O. A. and Avaeva, S. M., Anal Biochem, 171, 266-270 (1988)). Assay buffer consisted of 10 mM Tris-acetate at pH 8.0, 40 mM sodium chloride, 10 mM magnesium acetate, 0.005% Tween-20 and 1 mM dithiothreitol (DTT). The final conditions consisted of 6 nM recombinant human NUDT5, 50 μM ADP-Ribose and 10 U/ml of calf intestine alkaline phosphatase. The plates with compounds, enzymes and substrate were incubated at room temperature for 15 minutes, after which the reaction was terminated and the signal developed by the addition of the malachite green reagent using a MultiDrop (Thermo Scientific). Following vigorous shaking on plate shakers for a minimum of eight minutes the absorbance was read in a microplate reader (HidexSense) using a filter at 630 nm and a read time of 0.1 s per well. Inhibitors were used in dilutions from 100 μM to 1.7 nM in 3-fold dilution steps. Experiments were run in duplicate and confirmed in two independent experiments. IC50 values were determined by curve fitting using ExcelFit.
For orientation: Reporter assays use an easily measured gene product as a stand-in for the process of interest.

Usually IC50 stands for the concentration that gives 50% inhibition. Take `Cn1c(=O)c2c(nc(N3CCNCC3)n2Cc2nnc(-c3ccc(F)cc3)o2)n(C)c1=O` [Example 109, 7-{[5-(4-fluorophenyl)-1,3,4-oxadiazol-2-yl]methyl}-1,3-dimethyl-8-(piperazin-1-yl)-2,3,6,7-tetrahydro-1H-purine-2,6-dione]: the IC50 (Table 4) is 0.345 µM.

As for `CCCCCCN1CCN(c2nc3c(c(=O)n(C)c(=O)n3C)n2Cc2nnc(-c3ccc(Cl)c(Cl)c3)o2)CC1` [Example 15, 7-{[5-(3,4-dichlorophenyl)-1,3,4-oxadiazol-2-yl]methyl}-8-(4-hexylpiperazin-1-yl)-1,3-dimethyl-2,3,6,7-tetrahydro-1H-purine-2,6-dione], the IC50 (Table 3) came to 0.432 µM.

`COc1cc(-c2nnc(Cn3c(SCCNC(C)=O)nc4c3c(=O)n(C)c(=O)n4C)o2)ccc1C` [Example 141, N-{2-[(7-{[5-(3-methoxy-4-methylphenyl)-1,3,4-oxadiazol-2-yl]methyl}-1,3-dimethyl-2,6-dioxo-2,3,6,7-tetrahydro-1H-purin-8-yl)sulfanyl]ethyl}acetamide]: the concentration for half-maximal inhibition (IC50) (Table 4) was 0.306 µM.

As to `Cc1cccc(-c2nnc(Cn3c(NCc4ccccc4)nc4c3c(=O)n(C)c(=O)n4C)o2)c1` [Example 50, 8-(benzylamino)-1,3-dimethyl-7-{[5-(3-methylphenyl)-1,3,4-oxadiazo-2-yl]methyl}-2,3,6,7-tetrahydro-1H-purine-2,6-dione], for the setting “Table 3”, the IC50 worked out at 0.144 µM.

Consider `Cn1c(=O)c2c(nc(N3CCN(CCO)CC3)n2Cc2nnc(-c3ccc(Cl)c(Cl)c3)o2)n(C)c1=O` [Example 31, 7-{[5-(3,4-dichlorophenyl)-1,3,4-oxadiazol-2-yl]methyl}-8-[4-(2-hydroxyethyl)piperazin-1-yl]-1,3-dimethyl-2,3,6,7-tetrahydro-1H-purine-2,6-dione], for which, under “Table 3”, the IC50 stood at 0.106 µM.

As for `Cn1c(=O)c2c(nc(N3CCC(C(N)=O)CC3)n2Cc2nnc(-c3ccc(Cl)c(Cl)c3)o2)n(C)c1=O` [Example 136, 1-(7-{[5-(3,4-dichlorophenyl)-1,3,4-oxadiazol-2-yl]methyl}-1,3-dimethyl-2,6-dioxo-2,3,6,7-tetrahydro-1H-purin-8-yl)piperidine-4-carboxamide], the half-maximal inhibitory concentration (IC50) (Table 4) turned out to be 0.00827 µM.

Turning to `Cn1c(=O)c2c(nc(NC3CC3)n2Cc2nnc(-c3ccc(Cl)c(Cl)c3)o2)n(C)c1=O` [Example 42, 8-(cyclopropylamino)-7-{[5-(3,4-dichlorophenyl)-1,3,4-oxadiazol-2-yl]methyl}-1,3-dimethyl-2,3,6,7-tetrahydro-1H-purine-2,6-dione], under “Table 3”, the IC50 was determined as 0.0264 µM.

Consider `COc1cc(-c2nnc(Cn3c(N4CCC(C(N)=O)CC4)nc4c3c(=O)n(C)c(=O)n4C)o2)ccc1C` [Example 138, 1-(7-{[5-(3-methoxy-4-methylphenyl)-1,3,4-oxadiazol-2-yl]methyl}-1,3-dimethyl-2,6-dioxo-2,3,6,7-tetrahydro-1H-purin-8-yl)piperidine-4-carboxamide], for which the IC50 (Table 4) worked out at 0.0334 µM.

With `CCOC(=O)c1cn2c(n1)CN(c1nc3c(c(=O)n(C)c(=O)n3C)n1Cc1nnc(-c3ccc(Cl)c(Cl)c3)o1)CC2` [Example 81, ethyl 7-(7-{[5-(3,4-dichlorophenyl)-1,3,4-oxadiazol-2-yl]methyl}-1,3-dimethyl-2,6-dioxo-2,3,6,7-tetrahydro-1H-purin-8-yl)-5H,6H,7H,8H-imidazo[1,2-a]pyrazine-2-carboxylate], the 50% inhibitory concentration (IC50) (Table 4) was 0.149 µM.

As for `COc1cc(-c2nnc(Cn3c(N4CCCNCC4)nc4c3c(=O)n(C)c(=O)n4C)o2)ccc1C` [Example 131, 8-(1,4-diazepan-1-yl)-7-{[5-(3-methoxy-4-methylphenyl)-1,3,4-oxadiazol-2-yl]methyl}-1,3-dimethyl-2,3,6,7-tetrahydro-1H-purine-2,6-dione], the IC50 (Table 4) was determined as 0.0607 µM.

As for `COc1ccc(-c2nnc(Cn3c(Cl)nc4c3c(=O)n(C)c(=O)n4C)o2)cc1OC` [Example 104, 8-chloro-7-{[5-(3,4-dimethoxyphenyl)-1,3,4-oxadiazol-2-yl]methyl}-1,3-dimethyl-2,3,6,7-tetrahydro-1H-purine-2,6-dione], the IC50 (Table 4) was > 100 µM.

Regarding `COc1cc(-c2nnc(Cn3c(N4CCNC(C(F)(F)F)C4)nc4c3c(=O)n(C)c(=O)n4C)o2)ccc1C` (stereo not shown) [Example 129, 7-{[5-(3-methoxy-4-methylphenyl)-1,3,4-oxadiazol-2-yl]methyl}-1,3-dimethyl-8-[3-(trifluoromethyl)piperazin-1-yl]-2,3,6,7-tetrahydro-1H-purine-2,6-dione], the IC50 (Table 4) was determined as 0.911 µM.

For `Cn1c(=O)c2c(nc(N3CCCC(F)C3)n2Cc2nnc(-c3ccc(Cl)c(Cl)c3)o2)n(C)c1=O` (stereo not shown) [Example 41, 7-{[5-(3,4-dichlorophenyl)-1,3,4-oxadiazol-2-yl]methyl}-8-(3-fluoropiperidin-1-yl)-1,3-dimethyl-2,3,6,7-tetrahydro-1H-purine-2,6-dione], the IC50 (Table 3) is 0.0242 µM.

In the case of `Cn1c(=O)c2c(nc(N3CCCCCC3)n2Cc2nnc(-c3ccc(Cl)c(Cl)c3)o2)n(C)c1=O` [Example 21, 8-(azepan-1-yl)-7-{[5-(3,4-dichlorophenyl)-1,3,4-oxadiazol-2-yl]methyl}-1,3-dimethyl-2,3,6,7-tetrahydro-1H-purine-2,6-dione], the IC50 (Table 3) was found to be 0.0503 µM.

Turning to `COc1ccc(-c2nnc(Cn3c(N4CCNCC4)nc4c3c(=O)n(C)c(=O)n4C)o2)cc1OC` [Example 123, 7-{[5-(3,4-dimethoxyphenyl)-1,3,4-oxadiazol-2-yl]methyl}-1,3-dimethyl-8-(piperazin-1-yl)-2,3,6,7-tetrahydro-1H-purine-2,6-dione], the IC50 (Table 4) was determined as 0.169 µM.

Take `CC1CN(c2nc3c(c(=O)n(C)c(=O)n3C)n2Cc2nnc(-c3ccc(Cl)c(Cl)c3)o2)CCN1` (stereo not shown) [Example 33, 7-{[5-(3,4-dichlorophenyl)-1,3,4-oxadiazol-2-yl]methyl}-1,3-dimethyl-8-(3-methylpiperazin-1-yl)-2,3,6,7-tetrahydro-1H-purine-2,6-dione]: the IC50 (Table 3) turned out to be 0.0178 µM.

Turning to `Cn1c(=O)c2c(nc(Cl)n2Cc2nc(-c3ccc(Cl)cc3)no2)n(C)c1=O` [Example 69, 8-chloro-7-{[3-(4-chlorophenyl)-1,2,4-oxadiazol-5-yl]methyl}-1,3-dimethyl-2,3,6,7-tetrahydro-1H-purine-2,6-dione], the IC50 (Table 4) came out at 0.296 µM.

As for `COc1cc(-c2nnc(Cn3c(N4CCC(CO)CC4)nc4c3c(=O)n(C)c(=O)n4C)o2)ccc1C` [Example 130, 8-[4-(hydroxymethyl)piperidin-1-yl]-7-{[5-(3-methoxy-4-methylphenyl)-1,3,4-oxadiazol-2-yl]methyl}-1,3-dimethyl-2,3,6,7-tetrahydro-1H-purine-2,6-dione], the 50% inhibitory concentration (IC50) (Table 4) stood at 0.205 µM.

Take `Cn1c(=O)c2c(nc(Cl)n2Cc2nnc(-c3ccc(F)cc3)o2)n(C)c1=O` [Example 90, 8-chloro-7-{[5-(4-fluorophenyl)-1,3,4-oxadiazol-2-yl]methyl}-1,3-dimethyl-2,3,6,7-tetrahydro-1H-purine-2,6-dione]: for the setting “Table 4”, the IC50 was determined as 4.39 µM.

Consider `Cn1c(=O)c2c(nc(N3CCN(CCNC(=O)OC(C)(C)C)CC3)n2Cc2nnc(-c3ccc(Cl)c(Cl)c3)o2)n(C)c1=O` [Example 64, tert-butyl N-{2-[4-(7-{[5-(3,4-dichlorophenyl)-1,3,4-oxadiazol-2-yl]methyl}-1,3-dimethyl-2,6-dioxo-2,3,6,7-tetrahydro-1H-purin-8-yl)piperazin-1-yl]ethyl}carbamate], for which the IC50 (Table 4) was 0.226 µM.

With `Cn1c(=O)c2c(nc(N3CCNCC3)n2Cc2cn(-c3ccc(Cl)c(Cl)c3)nn2)n(C)c1=O` [Example 144, 7-{[1-(3,4-dichlorophenyl)-1H-1,2,3-triazol-4-yl]methyl}-1,3-dimethyl-8-(piperazin-1-yl)-2,3,6,7-tetrahydro-1H-purine-2,6-dione], the IC50 (Table 4) came to 0.155 µM.

In the case of `Cn1c(=O)c2c(nc(N3CCNC(C(F)(F)F)C3)n2Cc2nnc(-c3ccc(Cl)c(Cl)c3)o2)n(C)c1=O` (stereo not shown) [Example 134, 7-{[5-(3,4-dichlorophenyl)-1,3,4-oxadiazol-2-yl]methyl}-1,3-dimethyl-8-[3-(trifluoromethyl)piperazin-1-yl]-2,3,6,7-tetrahydro-1H-purine-2,6-dione], the IC50 (Table 4) turned out to be 0.14 µM.

Regarding `COc1cc(-c2nnc(Cn3c(SCCNC(=O)OC(C)(C)C)nc4c3c(=O)n(C)c(=O)n4C)o2)ccc1C` [Example 140, tert-butyl N-{2-[(7-{[5-(3-methoxy-4-methylphenyl)-1,3,4-oxadiazol-2-yl]methyl}-1,3-dimethyl-2,6-dioxo-2,3,6,7-tetrahydro-1H-purin-8-yl)sulfanyl]ethyl}carbamate], the IC50 (Table 4) was 0.262 µM.

Regarding `Cn1c(=O)c2c(nc(N3CCNCC3)n2Cc2nnc(-c3ccc4[nH]ncc4c3)o2)n(C)c1=O` [Example 124, 7-{[5-(1H-indazol-5-yl)-1,3,4-oxadiazol-2-yl]methyl}-1,3-dimethyl-8-(piperazin-1-yl)-2,3,6,7-tetrahydro-1H-purine-2,6-dione], the IC50 (Table 4) worked out at 0.309 µM.

As for `Cn1c(=O)c2c(nc(Cl)n2Cc2nnc(-c3ccc([N+](=O)[O-])cc3)o2)n(C)c1=O` [Example 96, 8-chloro-1,3-dimethyl-7-{[5-(4-nitrophenyl)-1,3,4-oxadiazol-2-yl]methyl}-2,3,6,7-tetrahydro-1H-purine-2,6-dione], where the note is “Table 4”, the IC50 came out at 1.51 µM.
